Tests used:
[1] = system: Tyrosine-protein kinase ABL1 (Homo sapiens), P00519 [E255K]; settings: Compound concentration 1000.0 nM
[2] = system: Tyrosine-protein kinase ABL1 (Homo sapiens), P00519 [Y253F]; settings: Compound concentration 1000.0 nM
[3] = molecular target: Activin receptor type-1-like (Homo sapiens) (UniProt P37023); settings: Compound concentration 1000.0 nM
[4] = molecular target: Mitogen-activated protein kinase kinase kinase 6 (Homo sapiens) (UniProt O95382); settings: Compound concentration 1000.0 nM
Mitogen-activated protein kinase kinase kinase 6 (Homo sapiens), sequence (O95382 whole entry): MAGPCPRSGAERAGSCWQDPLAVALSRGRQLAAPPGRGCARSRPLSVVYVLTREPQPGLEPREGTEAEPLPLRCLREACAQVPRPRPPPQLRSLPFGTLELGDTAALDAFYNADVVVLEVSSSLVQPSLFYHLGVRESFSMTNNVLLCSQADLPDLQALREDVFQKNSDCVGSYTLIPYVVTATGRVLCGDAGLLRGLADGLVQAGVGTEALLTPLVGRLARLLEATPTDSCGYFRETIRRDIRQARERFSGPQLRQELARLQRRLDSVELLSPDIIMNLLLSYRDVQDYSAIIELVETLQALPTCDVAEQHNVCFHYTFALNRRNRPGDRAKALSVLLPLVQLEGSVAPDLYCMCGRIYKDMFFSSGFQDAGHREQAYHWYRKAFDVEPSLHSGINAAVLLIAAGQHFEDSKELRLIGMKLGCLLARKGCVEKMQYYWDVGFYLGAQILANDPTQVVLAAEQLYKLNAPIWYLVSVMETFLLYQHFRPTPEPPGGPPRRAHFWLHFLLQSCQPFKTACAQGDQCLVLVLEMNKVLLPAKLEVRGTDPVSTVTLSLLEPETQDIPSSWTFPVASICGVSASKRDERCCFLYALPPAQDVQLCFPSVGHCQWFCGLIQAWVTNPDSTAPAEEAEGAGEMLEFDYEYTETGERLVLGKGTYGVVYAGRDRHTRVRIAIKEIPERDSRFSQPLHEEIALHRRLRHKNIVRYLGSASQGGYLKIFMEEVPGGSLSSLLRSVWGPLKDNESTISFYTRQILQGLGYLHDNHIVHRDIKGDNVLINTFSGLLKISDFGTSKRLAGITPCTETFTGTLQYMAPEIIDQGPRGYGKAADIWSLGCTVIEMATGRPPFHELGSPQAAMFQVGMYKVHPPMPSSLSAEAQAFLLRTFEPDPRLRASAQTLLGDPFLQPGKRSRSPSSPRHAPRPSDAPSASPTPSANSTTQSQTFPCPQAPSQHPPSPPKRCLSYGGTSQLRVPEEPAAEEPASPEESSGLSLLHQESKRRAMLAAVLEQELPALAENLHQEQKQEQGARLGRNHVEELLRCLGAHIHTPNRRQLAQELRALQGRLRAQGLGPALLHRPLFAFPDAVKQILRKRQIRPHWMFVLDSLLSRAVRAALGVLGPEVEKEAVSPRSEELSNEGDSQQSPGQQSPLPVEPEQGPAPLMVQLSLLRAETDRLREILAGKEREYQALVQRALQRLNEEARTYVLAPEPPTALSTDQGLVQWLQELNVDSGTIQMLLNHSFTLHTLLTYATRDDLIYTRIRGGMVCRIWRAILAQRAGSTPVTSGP

[5] = molecular target: Aurora kinase B (Homo sapiens) (UniProt Q96GD4); settings: Compound concentration 1000.0 nM
[6] = molecular target: Calcium/calmodulin-dependent protein kinase kinase 2 (Homo sapiens) (UniProt Q96RR4); settings: Compound concentration 1000.0 nM
[7] = molecular target: Cyclin-dependent kinase 11A (Homo sapiens) (UniProt Q9UQ88); settings: Compound concentration 1000.0 nM
[8] = molecular target: Cyclin-dependent kinase 7 (Homo sapiens) (UniProt P50613); settings: Compound concentration 1000.0 nM
[9] = molecular target: Macrophage colony-stimulating factor 1 receptor (Homo sapiens) (UniProt P07333); settings: Compound concentration 1000.0 nM
[10] = molecular target: Casein kinase II subunit alpha' (Homo sapiens) (UniProt P19784); settings: Compound concentration 1000.0 nM
[11] = molecular target: Serine/threonine-protein kinase MRCK gamma (Homo sapiens) (UniProt Q6DT37); settings: Compound concentration 1000.0 nM
[12] = molecular target: Serine/threonine-protein kinase 17A (Homo sapiens) (UniProt Q9UEE5); settings: Compound concentration 1000.0 nM
[13] = system: Epidermal growth factor receptor (Homo sapiens), P00533 [UNDEFINED MUTATION]; settings: Compound concentration 1000.0 nM
[14] = molecular target: Ephrin type-A receptor 1 (Homo sapiens) (UniProt P21709); settings: Compound concentration 1000.0 nM
[15] = molecular target: Ephrin type-A receptor 6 (Homo sapiens) (UniProt Q9UF33); settings: Compound concentration 1000.0 nM
[16] = system: Receptor-type tyrosine-protein kinase FLT3 (Homo sapiens), P36888 [UNDEFINED MUTATION]; settings: Compound concentration 1000.0 nM
[17] = molecular target: Glycogen synthase kinase-3 beta (Homo sapiens) (UniProt P49841); settings: Compound concentration 1000.0 nM
Glycogen synthase kinase-3 beta (Homo sapiens), sequence (P49841 whole entry, looked up): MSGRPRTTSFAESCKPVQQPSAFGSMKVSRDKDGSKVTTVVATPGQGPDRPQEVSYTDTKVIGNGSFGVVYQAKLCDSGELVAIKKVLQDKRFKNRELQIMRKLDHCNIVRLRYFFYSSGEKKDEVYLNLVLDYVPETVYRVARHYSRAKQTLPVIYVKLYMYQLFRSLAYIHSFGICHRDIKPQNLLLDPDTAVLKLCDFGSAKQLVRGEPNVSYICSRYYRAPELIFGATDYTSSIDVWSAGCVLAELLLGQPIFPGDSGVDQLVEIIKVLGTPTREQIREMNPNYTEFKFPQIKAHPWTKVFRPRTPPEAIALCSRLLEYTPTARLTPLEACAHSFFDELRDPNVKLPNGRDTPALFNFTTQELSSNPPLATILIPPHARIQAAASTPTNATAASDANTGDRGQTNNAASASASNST

[18] = system: Mast/stem cell growth factor receptor Kit (Homo sapiens), P10721 [L576P]; settings: Compound concentration 1000.0 nM
[19] = molecular target: Tyrosine-protein kinase Lck (Homo sapiens) (UniProt P06239); settings: Compound concentration 1000.0 nM
Tyrosine-protein kinase Lck (Homo sapiens), sequence (P06239 2-509 limits assumed): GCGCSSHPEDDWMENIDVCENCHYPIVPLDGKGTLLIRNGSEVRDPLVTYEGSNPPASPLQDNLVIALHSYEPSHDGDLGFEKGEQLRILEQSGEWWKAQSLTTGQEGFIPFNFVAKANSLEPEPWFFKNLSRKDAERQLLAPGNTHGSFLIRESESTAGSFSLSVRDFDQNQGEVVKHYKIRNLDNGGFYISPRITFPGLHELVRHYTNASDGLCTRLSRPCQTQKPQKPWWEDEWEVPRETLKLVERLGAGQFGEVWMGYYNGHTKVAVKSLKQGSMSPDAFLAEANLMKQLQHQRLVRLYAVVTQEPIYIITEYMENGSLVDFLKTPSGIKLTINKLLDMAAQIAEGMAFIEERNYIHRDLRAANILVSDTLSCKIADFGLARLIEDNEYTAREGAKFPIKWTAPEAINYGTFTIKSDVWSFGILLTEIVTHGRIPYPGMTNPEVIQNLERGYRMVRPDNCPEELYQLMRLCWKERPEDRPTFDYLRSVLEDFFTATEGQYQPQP

[20] = molecular target: Mitogen-activated protein kinase kinase kinase kinase 3 (Homo sapiens) (UniProt Q8IVH8); settings: Compound concentration 1000.0 nM
[21] = molecular target: Microtubule-associated serine/threonine-protein kinase 1 (Homo sapiens) (UniProt Q9Y2H9); settings: Compound concentration 1000.0 nM
[22] = molecular target: Mitogen-activated protein kinase kinase kinase 10 (Homo sapiens) (UniProt Q02779); settings: Compound concentration 1000.0 nM
[23] = molecular target: Serine/threonine-protein kinase 4 (Homo sapiens) (UniProt Q13043); settings: Compound concentration 1000.0 nM
[24] = molecular target: Serine/threonine-protein kinase Nek10 (Homo sapiens) (UniProt Q6ZWH5); settings: Compound concentration 1000.0 nM
[25] = molecular target: Mitogen-activated protein kinase kinase kinase 14 (Homo sapiens) (UniProt Q99558); settings: Compound concentration 1000.0 nM
Mitogen-activated protein kinase kinase kinase 14 (Homo sapiens), sequence (Q99558 whole entry, looked up): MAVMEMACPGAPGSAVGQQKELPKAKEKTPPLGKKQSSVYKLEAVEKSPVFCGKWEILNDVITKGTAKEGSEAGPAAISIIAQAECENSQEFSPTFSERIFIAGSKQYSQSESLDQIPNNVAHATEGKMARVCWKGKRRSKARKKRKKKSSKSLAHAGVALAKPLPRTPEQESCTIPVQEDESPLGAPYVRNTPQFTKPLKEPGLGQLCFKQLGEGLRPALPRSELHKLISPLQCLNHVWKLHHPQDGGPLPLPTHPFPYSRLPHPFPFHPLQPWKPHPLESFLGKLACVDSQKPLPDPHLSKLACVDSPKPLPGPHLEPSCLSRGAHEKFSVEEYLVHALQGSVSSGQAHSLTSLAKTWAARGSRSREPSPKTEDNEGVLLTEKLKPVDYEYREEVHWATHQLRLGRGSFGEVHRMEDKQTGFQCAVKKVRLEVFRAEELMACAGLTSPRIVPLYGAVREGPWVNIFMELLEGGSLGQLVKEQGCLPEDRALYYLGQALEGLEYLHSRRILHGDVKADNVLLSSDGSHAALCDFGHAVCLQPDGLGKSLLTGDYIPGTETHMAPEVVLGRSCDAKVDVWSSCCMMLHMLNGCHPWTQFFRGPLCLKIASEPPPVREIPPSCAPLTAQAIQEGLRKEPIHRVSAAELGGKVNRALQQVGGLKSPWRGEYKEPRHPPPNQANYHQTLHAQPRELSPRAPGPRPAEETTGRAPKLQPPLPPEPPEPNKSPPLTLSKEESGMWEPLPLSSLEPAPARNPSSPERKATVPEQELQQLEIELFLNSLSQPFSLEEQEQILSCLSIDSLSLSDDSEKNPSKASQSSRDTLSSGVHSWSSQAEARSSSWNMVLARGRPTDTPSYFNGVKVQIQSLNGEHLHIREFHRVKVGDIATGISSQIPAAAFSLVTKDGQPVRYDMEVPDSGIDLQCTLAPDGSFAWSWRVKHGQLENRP

[26] = molecular target: Serine/threonine-protein kinase PAK 4 (Homo sapiens) (UniProt O96013); settings: Compound concentration 1000.0 nM
Serine/threonine-protein kinase PAK 4 (Homo sapiens), sequence (O96013 whole entry, looked up): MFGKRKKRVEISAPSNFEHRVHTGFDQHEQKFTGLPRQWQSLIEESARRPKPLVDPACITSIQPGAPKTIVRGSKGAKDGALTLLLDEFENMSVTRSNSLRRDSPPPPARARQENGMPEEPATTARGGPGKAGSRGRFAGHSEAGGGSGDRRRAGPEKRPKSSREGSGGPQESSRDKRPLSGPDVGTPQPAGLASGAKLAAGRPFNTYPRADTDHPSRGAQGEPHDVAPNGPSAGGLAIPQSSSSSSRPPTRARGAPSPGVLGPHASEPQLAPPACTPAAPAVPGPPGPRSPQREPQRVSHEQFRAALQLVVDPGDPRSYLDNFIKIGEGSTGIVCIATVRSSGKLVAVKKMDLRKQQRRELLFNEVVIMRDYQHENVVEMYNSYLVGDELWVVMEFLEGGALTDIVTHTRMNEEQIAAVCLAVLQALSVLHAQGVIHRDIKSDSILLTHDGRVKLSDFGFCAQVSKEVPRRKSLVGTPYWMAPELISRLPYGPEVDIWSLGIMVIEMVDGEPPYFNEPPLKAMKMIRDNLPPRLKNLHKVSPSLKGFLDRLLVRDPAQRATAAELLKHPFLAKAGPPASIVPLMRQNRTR

[27] = molecular target: Cyclin-dependent kinase 17 (Homo sapiens) (UniProt Q00537); settings: Compound concentration 1000.0 nM
[28] = molecular target: Phosphatidylinositol 3-kinase C2 domain-containing subunit gamma (Homo sapiens) (UniProt O75747); settings: Compound concentration 1000.0 nM
[29] = molecular target: Serine/threonine-protein kinase PLK3 (Homo sapiens) (UniProt Q9H4B4); settings: Compound concentration 1000.0 nM
[30] = molecular target: Serine/threonine-protein kinase PLK4 (Homo sapiens) (UniProt O00444); settings: Compound concentration 1000.0 nM
[31] = molecular target: Interferon-induced, double-stranded RNA-activated protein kinase (Homo sapiens) (UniProt P19525); settings: Compound concentration 1000.0 nM
[32] = molecular target: Proto-oncogene tyrosine-protein kinase receptor Ret (Homo sapiens) (UniProt P07949); settings: Compound concentration 1000.0 nM
[33] = system: Proto-oncogene tyrosine-protein kinase receptor Ret (Homo sapiens), P07949 [M918T]; settings: Compound concentration 1000.0 nM
[34] = molecular target: Serine/threonine-protein kinase RIO3 (Homo sapiens) (UniProt O14730); settings: Compound concentration 1000.0 nM
[35] = molecular target: Ribosomal protein S6 kinase alpha-4 (Homo sapiens) (UniProt O75676); settings: Compound concentration 1000.0 nM
[36] = molecular target: Ribosomal protein S6 kinase alpha-1 (Homo sapiens) (UniProt Q15418); settings: Compound concentration 1000.0 nM
Ribosomal protein S6 kinase alpha-1 (Homo sapiens), sequence (Q15418 whole entry): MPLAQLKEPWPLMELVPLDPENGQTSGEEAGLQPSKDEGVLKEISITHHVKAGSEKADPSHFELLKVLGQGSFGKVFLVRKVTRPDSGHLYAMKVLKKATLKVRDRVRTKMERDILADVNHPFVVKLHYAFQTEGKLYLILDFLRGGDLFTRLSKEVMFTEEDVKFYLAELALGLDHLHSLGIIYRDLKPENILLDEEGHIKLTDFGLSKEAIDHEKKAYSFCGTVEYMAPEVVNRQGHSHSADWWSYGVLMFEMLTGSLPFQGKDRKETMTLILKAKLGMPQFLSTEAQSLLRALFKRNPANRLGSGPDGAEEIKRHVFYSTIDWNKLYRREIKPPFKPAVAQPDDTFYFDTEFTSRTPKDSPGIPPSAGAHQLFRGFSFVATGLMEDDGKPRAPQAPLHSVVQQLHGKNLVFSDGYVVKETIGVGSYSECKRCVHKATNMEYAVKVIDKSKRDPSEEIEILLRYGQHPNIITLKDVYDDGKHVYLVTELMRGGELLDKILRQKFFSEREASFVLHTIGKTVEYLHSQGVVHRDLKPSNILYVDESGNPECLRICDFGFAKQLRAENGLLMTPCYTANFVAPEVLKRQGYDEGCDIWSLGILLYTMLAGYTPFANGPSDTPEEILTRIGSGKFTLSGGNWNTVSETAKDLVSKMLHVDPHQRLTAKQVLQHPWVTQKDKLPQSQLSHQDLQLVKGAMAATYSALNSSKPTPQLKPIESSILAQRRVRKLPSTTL

[37] = molecular target: Ribosomal protein S6 kinase alpha-1 (Homo sapiens) (UniProt Q15418); settings: Compound concentration 1000.0 nM; remark: listed apart in the source
[38] = molecular target: Serine/threonine-protein kinase 16 (Homo sapiens) (UniProt O75716); settings: Compound concentration 1000.0 nM
[39] = molecular target: Serine/threonine-protein kinase 35 (Homo sapiens) (UniProt Q8TDR2); settings: Compound concentration 1000.0 nM
[40] = molecular target: Angiopoietin-1 receptor (Homo sapiens) (UniProt Q02763); settings: Compound concentration 1000.0 nM
[41] = molecular target: Serine/threonine-protein kinase WNK3 (Homo sapiens) (UniProt Q9BYP7); settings: Compound concentration 1000.0 nM
[42] = molecular target: GABA-A receptor; anion channel (Rattus norvegicus) (UniProt O09028+P15431+P18506+P18508+P19969+P20236+P23574+P23576+P28471+P28473+P30191+P62813+P63079+P63138+Q91ZM7+Q9ES14); settings: Compound concentration 10.0 uM
[43] = molecular target: Sigma intracellular receptor 2 (Homo sapiens) (UniProt Q5BJF2); settings: Compound concentration 10.0 uM

Activin receptor type-1-like (Homo sapiens), sequence (P37023 whole entry): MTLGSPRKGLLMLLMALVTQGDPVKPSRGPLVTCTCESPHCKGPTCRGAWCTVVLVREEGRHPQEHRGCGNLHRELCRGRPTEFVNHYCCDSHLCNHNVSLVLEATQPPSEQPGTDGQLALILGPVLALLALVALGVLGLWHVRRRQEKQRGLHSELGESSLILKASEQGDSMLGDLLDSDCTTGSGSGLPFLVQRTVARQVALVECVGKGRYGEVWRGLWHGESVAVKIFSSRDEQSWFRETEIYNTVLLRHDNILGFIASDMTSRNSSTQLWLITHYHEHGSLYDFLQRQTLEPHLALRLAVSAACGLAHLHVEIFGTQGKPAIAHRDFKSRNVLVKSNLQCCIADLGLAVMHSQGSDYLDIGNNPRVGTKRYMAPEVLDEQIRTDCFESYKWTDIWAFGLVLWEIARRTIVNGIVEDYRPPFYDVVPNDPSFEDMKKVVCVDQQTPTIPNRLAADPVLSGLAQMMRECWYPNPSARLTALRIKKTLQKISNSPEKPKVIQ

N#CC1(c2ccccn2)CCN(Cc2cc(C(=O)O)c(=O)n3ccccc23)CC1 [MSD-M1PAM]
inactive: residual activity [1] 100% | residual activity [2] 72% | residual activity [3] 95% | residual activity [4] 100% | residual activity [5] 76% | residual activity [6] 100% | residual activity [7] 100% | residual activity [8] 58% | residual activity [9] 100% | residual activity [10] 86% | residual activity [11] 100% | residual activity [12] 100% | residual activity [13] 80% | residual activity [14] 100% | residual activity [15] 86% | residual activity [16] 100% | residual activity [17] 100% | residual activity [18] 100% | residual activity [19] 97% | residual activity [20] 80% | residual activity [21] 50% | residual activity [22] 97% | residual activity [23] 100% | residual activity [24] 93% | residual activity [25] 73% | residual activity [26] 100% | residual activity [27] 96% | residual activity [28] 97% | residual activity [29] 85% | residual activity [30] 90% | residual activity [31] 95% | residual activity [32] 95% | residual activity [33] 100% | residual activity [34] 96% | residual activity [35] 65% | residual activity [36] 94% | residual activity [37] 100% | residual activity [38] 100% | residual activity [39] 94% | residual activity [40] 95% | residual activity [41] 99% | inhibition [42] 8.92% | inhibition [43] 5.17%

N#CC1(c2ccccn2)CCN(Cc2cc(C(=O)N3CCCC3)c(=O)n3ccccc23)CC1
inactive: residual activity [1] 87% | residual activity [2] 92% | residual activity [3] 100% | residual activity [4] 100% | residual activity [5] 92% | residual activity [6] 100% | residual activity [7] 93% | residual activity [8] 82% | residual activity [9] 86% | residual activity [10] 98% | residual activity [11] 88% | residual activity [12] 96% | residual activity [13] 94% | residual activity [14] 83% | residual activity [15] 100% | residual activity [16] 90% | residual activity [17] 100% | residual activity [18] 100% | residual activity [19] 100% | residual activity [20] 81% | residual activity [21] 82% | residual activity [22] 100% | residual activity [23] 88% | residual activity [24] 96% | residual activity [25] 100% | residual activity [26] 100% | residual activity [27] 82% | residual activity [28] 73% | residual activity [29] 100% | residual activity [30] 87% | residual activity [31] 100% | residual activity [32] 74% | residual activity [33] 88% | residual activity [34] 90% | residual activity [35] 100% | residual activity [36] 100% | residual activity [37] 79% | residual activity [38] 100% | residual activity [39] 96% | residual activity [40] 85% | residual activity [41] 94% | inhibition [42] 21.8% | inhibition [43] 24.1%

— ChEMBL document CHEMBL4507295 (2021)
